Laboratory results as given in patent publication US20250345318A1, “COMPOUND AND USE THEREOF IN PREVENTING OR TREATING RADIATION DAMAGE” (SIMCERE PHARMACEUTICAL CO., LTD., priority 2022, published 2025).

Experiments:
[1] = test system: C57BL/6 male mice; assay: Survival of mice after abdominal X-ray irradiation (Example 2); format: in vivo
Experimental: C57BL/6 male mice (26.7±1.0 g in body weight) aged 10 weeks were divided into two groups of 10 mice each. After acclimating to the environment, JAC4 (100 mg/kg) or an equal volume of vehicle (polyethylene glycol:ethanol:physiological saline=47.5:7.5:50, v/v/v) was orally administered to the mice once daily for 7 consecutive days. After that, the mice were subjected to abdominal X-ray irradiation (12 Gy) and JAC4 or vehicle treatment was continued. After 3 days, the administration of JAC4 or vehicle was discontinued. The status was observed daily and the body weights of the mice were recorded.

[2] = test system: C57BL/6 male mice; assay: Therapeutic JAC4 administration, total body X-ray irradiation, small intestine villus length (Example 7); format: in vivo
Experimental: C57BL/6 male mice (24.8±1.6 g in body weight) aged 10 weeks were divided into 4 groups. The mice were subjected to total body X-ray irradiation (6 Gy) before JAC4 (100 mg/kg) or an equal volume of vehicle (polyethylene glycol:ethanol:physiological saline=47.5:7.5:50, v/v/v) was orally administered to the mice once daily for 7 consecutive days. The small intestine tissues were collected for HE staining and inspection, and the small intestine villus length was measured in all groups and statistically analyzed. The specific procedures are as follows: 3 mice were randomly selected from each group for statistical analysis of their small intestine tissue HE staining images, and for each mouse, 6 fields of view were randomly selected for inspection (*** p<0.001).

[3] = test system: JWA^IEC-wt mice; assay: X-ray-induced intestinal injury in JWA^IEC-wt mice (Example 12); format: in vivo; conditions: ABI 10 Gy
Excerpt: The Model Animal Research Institute of Nanjing University was commissioned to conduct the construction of JWA^flox/+ A129 mice and embryo cryopreservation, preservation, and thawing. These mice were bred with wild-type C57/BL6 mice for over six generations to give mice of C57/BL6 background. Villin-cre mice, provided by Shanghai Model Organisms Center, Inc., were C57/BL6 mice. The JWA-knockout mice (JWA^ko) and their littermate control (JWA^wt) counterparts were derived from an in-house conservation breed. The JWA^flox/flox mice were bred from the JWA^flox/+ mice. The intestinal epithelial JWA-knockout mice (JWA^IEC-ko) and control group (JWA^IEC-wt) were obtained through breeding JWA^flex/flex mice with Villin-cre mice.
The off-target model was established using JWA^IEC-ko mice and their JWA^IEC-wt littermates (8 weeks old), and the mice receiving radiation were divided into 4 groups: (1) a JWA^IEC-wt mice+vehicle group (n=5); (2) a JWA^IEC-wt mice+JAC4 group (n=5); (3) a JWA^IEC-ko mice+vehicle group (n=6); (4) a JWA^IEC-ko mice+JAC4 group (n=5). All mice were subjected to abdominal irradiation at 10 Gy. 7 days before radiation, 10 mg/kg JAC4 or an equal volume of vehicle (polyethylene glycol:ethanol:physiological saline=40:7.5:52.5, v/v/v) was administered intragastrically daily until the end of modeling. The blank control group (wild type, n=6) was not irradiated, and the modeling was terminated on day 4 after radiation.
To verify whether the protective effect of JAC4 on X-ray radiation-induced intestinal damage in mice is dependent on the expression of JWA, the present disclosure verified the targeting effect of JAC4 using JWA^IEC-ko mice.
JWA^IEC-ko and JWA^IEC-wt mice were treated daily with JAC4 (10 mg/kg) or an equal volume of vehicle (polyethylene glycol:ethanol:physiological saline=47.5:7.5:50, v/v/v), respectively, from 7 days before the ABI (10 Gy) exposure to 4 days after the exposure. […] Meanwhile, the contents of TNF-α and IL-1β were consistent with the results of FD4. […] As shown in panels E and F, ABI increased the activity of GSH-Px (530.8±207.8 vs. 406.2±197.9 U/mL) and decreased the activity of CAT (89.4 f 0.4 vs. 68.7±14.2 U/mL). JAC4 further enhanced the antioxidant enzymes in JWA^IEC-wt mice (815.1±203.9 vs. 530.8±207.8 U/mL and 85.9±8.2 vs. 68.7±14.2 U/mL; P<0.05, P<0.05). […] Intestinal tissues were isolated, and the expression of apoptotic molecules was detected by Western blot (FIG. 16J). In wild-type mice, compared with the control group, X-rays increased the expression of Bax and cleaved PARP1 in the small intestine.

[4] = test system: IEC-6 cells; assay: Colocalization of cytochrome C and mitochondria in irradiated IEC-6 cells (Example 13); format: cell-based; conditions: 1 μM JAC4 24 h pretreatment + 12 Gy, 24 h after
Experimental: The effect was explored in a small intestinal epithelial IEC-6 cell in-vitro radiation model.
Formulation of JAC4 (1 μM or 10 μM): 5 mg of JAC4 was added to 1527 μL of DMSO to prepare a 10 mM stock solution, which was then serially diluted into 2 mM and 200 μM stock solutions.
10 μL of 200 μM stock solution was added into 90 μL of complete culture medium. The 100-μL mixture was uniformly mixed before 900 μL of complete culture medium was added, and uniformly mixed again before 1 mL of complete culture medium was added. The mixture was again uniformly mixed and then added into a six-well plate to give 1 μM JAC4.
Control wells: 10 μL of DMSO was added into 90 μL of complete culture medium. The 100-μL mixture was uniformly mixed before 900 μL of complete culture medium was added, and uniformly mixed again before 1 mL of complete culture medium was added. The mixture was again uniformly mixed and then added into a six-well plate.
IEC-6 cells were pretreated for 24 h with 1 μM JAC4 or DMSO and subjected to radiation (12 Gy) treatment. After 24 h, colocalized cell immunofluorescent images of mitochondrial cytochrome C staining and mitochondria staining were acquired and subjected to fluorescent colocalization analysis using the Image J software to give colocalization correlation coefficients (***p<0.001) of cytochrome C and mitochondria in IEC-6 cells after different treatments.

[5] = test system: IEC-6 cells; assay: Mitochondrial membrane potential by JC-1 staining in irradiated IEC-6 cells (Example 13); format: cell-based; conditions: JAC4 24 h pretreatment + 12 Gy, 24 h after
Experimental: IEC-6 cells were pretreated for 24 h with JAC4 ([…]) or DMSO and subjected to radiation (12 Gy) treatment. After 24 h the ROS produced in the IEC-6 cells was determined with a DCFH probe, the apoptosis of IEC-6 cells was determined by Hoechst staining, the mitochondrial membrane potential in IEC-6 cells was determined by JC-1 staining, and the apoptotic IEC-6 cell ratio of cells different treatments and the red/green fluorescence ratio in IEC-6 cells after different treatments were calculated (**p<0.01 and ***p<0.001).

[6] = JWA^IEC-wt mice, JAC4 10 mg/kg daily

c1ccc(CSc2nnc(C3COc4ccccc4O3)o2)nc1 (centres unmarked) [JAC4]
mean survival after radiation ([1]; JAC4 100 mg/kg oral once daily, 7 days before to 3 days after abdominal X-ray 12 Gy, observation day 30): 16.8 ± 9.0 days
number of mice died ([1]; JAC4 100 mg/kg oral, ABI 12 Gy, 10 mice per group, day 15): 4 mice
number of mice survived ([1]; JAC4 100 mg/kg oral, ABI 12 Gy, 10 mice per group, day 15, when all vehicle mice had died): 6 mice
weight loss after radiation ([1]; JAC4 100 mg/kg oral, ABI 12 Gy, vs vehicle): slower
small intestine villus length ([2]; TBI 6 Gy, then JAC4 100 mg/kg oral once daily 7 days): 263.11±37.99 μm
small intestine villus length ([2]; non-radiation, JAC4 100 mg/kg oral 7 days): 306.71±24.22 μm
plasma CAT activity [3, 6]: 85.9±8.2 U/mL
plasma GSH-Px activity [3, 6]: 815.1±203.9 U/mL
plasma IL-1β [3, 6]: 57.76 ± 5.9 ng/mL
plasma TNF-α [3, 6]: 583.2 ± 78.2 ng/mL
plasma FD4 content ([3]; JWA^IEC-wt mice, JAC4 10 mg/kg daily, day 4): 6719.9 ± 1823.5 ng/mL
expression of Bax and cleaved PARP1 in small intestine (Western blot) ([3]; wild-type mice, JAC4 10 mg/kg): downregulated
fluorescent colocalization correlation coefficient of the mitochondria and cytochrome C [4]: 0.73±0.02
red/green fluorescence ratio (JC-1, mitochondrial membrane potential) [5]: 0.49±0.05
